Experimental data from patent US12077503B2, “Substituted cyclic amides and their use as herbicides” (FMC CORPORATION, priority 2015, dated 2024).

Assays:
Format in all cases: in vivo
[1] = system: ivy-leaved morning glory (Ipomoea hederacea); assay: Test G Pre-Emergence Protocol; conditions: Ipomoea, pre-emergence, 312 h, evaluated after 13 days
Method in brief: (§1)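 Glasshouse pre-emergence test: soil-sown seeds, sprayed after 1 d at 15.625, 62.5 or 250 g/ha. Conditions 24/16° C day/night, 14 h light, 65% humidity, watering twice daily. Rating 13 d post-spray (100 = total damage).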

[2] = system: velvetleaf (Abutilon theophrasti); assay: Test G Pre-Emergence Protocol; conditions: Abutilon theophrasti, pre-emergence, 312 h, evaluated after 13 days
Method in brief: as §1

[3] = system: redroot pigweed (Amaranthus retroflexus); assay: Test G Pre-Emergence Protocol; conditions: Amaranthus retroflexus, pre-emergence, 312 h, evaluated after 13 days
Method in brief: as §1

[4] = system: corn (Zea mays); assay: Test G Pre-Emergence Protocol; conditions: Zea mays, pre-emergence, 312 h, evaluated after 13 days
Method in brief: as §1

[5] = system: giant foxtail (Setaria faberi); assay: Test G Pre-Emergence Protocol; conditions: Setaria faberi, pre-emergence, 312 h, evaluated after 13 days
Method in brief: as §1

[6] = system: barnyardgrass (Echinochloa crus-galli); assay: Test G Pre-Emergence Protocol; conditions: Echinochloa crus-galli, pre-emergence, 312 h, evaluated after 13 days
Method in brief: as §1

[7] = system: ivy-leaved morning glory (Ipomoea hederacea); assay: Test G Post-Emergence Protocol; conditions: Ipomoea, post-emergence, 312 h
Method in brief: (§2)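 A glasshouse post-emergence test: 8-day-old plants sprayed at 15.625, 62.5 or 250 g/ha, then grown at 24/16 °C day/night with 14 h light and 65% humidity. Damage rated 13 days later, 0–100.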

[8] = system: velvetleaf (Abutilon theophrasti); assay: Test G Post-Emergence Protocol; conditions: Abutilon theophrasti, post-emergence, 312 h
Method in brief: as §2

[9] = system: redroot pigweed (Amaranthus retroflexus); assay: Test G Post-Emergence Protocol; conditions: Amaranthus retroflexus, post-emergence, 312 h
Method in brief: as §2

[10] = system: corn (Zea mays); assay: Test G Post-Emergence Protocol; conditions: Zea mays, post-emergence, 312 h
Method in brief: as §2

[11] = system: giant foxtail (Setaria faberi); assay: Test G Post-Emergence Protocol; conditions: Setaria faberi, post-emergence, 312 h
Method in brief: as §2

[12] = system: barnyardgrass (Echinochloa crus-galli); assay: Test G Post-Emergence Protocol; conditions: Echinochloa crus-galli, post-emergence, 312 h
Method in brief: as §2

Cc1cc(NC(=O)[C@@H]2C(=O)N(C)C[C@H]2c2ccc(C(F)(F)F)cc2)[nH]n1 (racemic) [Compound 1626]
0%: pest or weed control at 15.625 g/ha ([1]; 15.625 g ai/ha, read-out: Morning-glory, Ivy-leaved damage rating (100=total damage to plant; 0=no damage to plant)) | pest or weed control at 62.5 g/ha ([1]; 62.5 g ai/ha, 100=total damage to plant, 0=no damage to plant, read-out: plant damage rating, Morningglory, Ivy-leaved) | pest or weed control at 250 g/ha ([1]; 250 g ai/ha, read-out: Morningglory, Ivy-leaved damage rating (100=total damage to plant; 0=no damage to plant)) | pest or weed control at 15.625 g/ha ([2]; 15.625 g ai/ha, read-out: Velvetleaf damage rating (100=total damage to plant; 0=no damage to plant)) | pest or weed control at 62.5 g/ha ([2]; 62.5 g ai/ha, 100=total damage to plant, 0=no damage to plant, read-out: plant damage rating, Velvetleaf) | pest or weed control at 250 g/ha ([2]; 250 g ai/ha, read-out: Velvetleaf damage rating (100=total damage to plant; 0=no damage to plant)) | pest or weed control at 15.625 g/ha ([3]; 15.625 g ai/ha, read-out: Pigweed, Redroot damage rating (100=total damage to plant; 0=no damage to plant)) | pest or weed control at 62.5 g/ha ([3]; 62.5 g ai/ha, 100=total damage to plant, 0=no damage to plant, read-out: plant damage rating, Pigweed, Redroot) | pest or weed control at 250 g/ha ([3]; 250 g ai/ha, read-out: Pigweed, Redroot damage rating (100=total damage to plant; 0=no damage to plant)) | plant injury at 15.625 g/ha ([4]; 15.625 g ai/ha, read-out: Corn damage rating (100=total damage to plant; 0=no damage to plant)) | plant injury at 62.5 g/ha ([4]; 62.5 g ai/ha, 100=total damage to plant, 0=no damage to plant, read-out: plant damage rating, Corn) | plant injury at 250 g/ha ([4]; 250 g ai/ha, read-out: Corn damage rating (100=total damage to plant; 0=no damage to plant)) | pest or weed control at 15.625 g/ha ([5]; 15.625 g ai/ha, read-out: Foxtail, Giant damage rating (100=total damage to plant; 0=no damage to plant)) | pest or weed control at 62.5 g/ha ([5]; 62.5 g ai/ha, 100=total damage to plant, 0=no damage to plant, read-out: plant damage rating, Foxtail, Giant) | pest or weed control at 250 g/ha ([5]; 250 g ai/ha, read-out: Foxtail, Giant damage rating (100=total damage to plant; 0=no damage to plant)) | pest or weed control at 15.625 g/ha ([6]; 15.625 g ai/ha, read-out: Barnyard grass damage rating (100=total damage to plant; 0=no damage to plant)) | pest or weed control at 62.5 g/ha ([6]; 62.5 g ai/ha, 100=total damage to plant, 0=no damage to plant, read-out: plant damage rating, Barnyardgrass) | pest or weed control at 250 g/ha ([6]; 250 g ai/ha, read-out: Barnyardgrass damage rating (100=total damage to plant; 0=no damage to plant)) | pest or weed control at 15.625 g/ha ([7]; 15.625 g ai/ha, evaluated after 13 days (100=total damage to plant; 0=no damage to plant), read-out: Morningglory, Ivy-leaved damage rating) | pest or weed control at 62.5 g/ha ([7]; 62.5 g ai/ha, evaluated after 13 days, read-out: Morningglory, Ivy-leaved damage rating (100=total damage to plant; 0=no damage to plant)) | pest or weed control at 250 g/ha ([7]; 250 g ai/ha, evaluated after 13 days, read-out: damage to plant, Morningglory, Ivy-leaved (100=total damage to plant; 0=no damage to plant)) | pest or weed control at 15.625 g/ha ([8]; 15.625 g ai/ha, evaluated after 13 days (100=total damage to plant; 0=no damage to plant), read-out: Velvetleaf damage rating) | pest or weed control at 62.5 g/ha ([8]; 62.5 g ai/ha, evaluated after 13 days, read-out: Velvetleaf damage rating (100=total damage to plant; 0=no damage to plant)) | pest or weed control at 250 g/ha ([8]; 250 g ai/ha, evaluated after 13 days, read-out: damage to plant, Velvetleaf (100=total damage to plant; 0=no damage to plant)) | pest or weed control at 15.625 g/ha ([9]; 15.625 g ai/ha, evaluated after 13 days (100=total damage to plant; 0=no damage to plant), read-out: Pigweed, Redroot damage rating) | pest or weed control at 62.5 g/ha ([9]; 62.5 g ai/ha, evaluated after 13 days, read-out: Pigweed, Redroot damage rating (100=total damage to plant; 0=no damage to plant)) | pest or weed control at 250 g/ha ([9]; 250 g ai/ha, evaluated after 13 days, read-out: damage to plant, Pigweed, Redroot (100=total damage to plant; 0=no damage to plant)) | plant injury at 15.625 g/ha ([10]; 15.625 g ai/ha, evaluated after 13 days (100=total damage to plant; 0=no damage to plant), read-out: Corn damage rating) | plant injury at 62.5 g/ha ([10]; 62.5 g ai/ha, evaluated after 13 days, read-out: Corn damage rating (100=total damage to plant; 0=no damage to plant)) | plant injury at 250 g/ha ([10]; 250 g ai/ha, evaluated after 13 days, read-out: damage to plant, Corn (100=total damage to plant; 0=no damage to plant)) | pest or weed control at 15.625 g/ha ([11]; 15.625 g ai/ha, evaluated after 13 days (100=total damage to plant; 0=no damage to plant), read-out: Foxtail, Giant damage rating) | pest or weed control at 62.5 g/ha ([11]; 62.5 g ai/ha, evaluated after 13 days, read-out: Foxtail, Giant damage rating (100=total damage to plant; 0=no damage to plant)) | pest or weed control at 250 g/ha ([11]; 250 g ai/ha, evaluated after 13 days, read-out: damage to plant, Foxtail, Giant (100=total damage to plant; 0=no damage to plant)) | pest or weed control at 15.625 g/ha ([12]; 15.625 g ai/ha, evaluated after 13 days (100=total damage to plant; 0=no damage to plant), read-out: Barnyardgrass damage rating) | pest or weed control at 62.5 g/ha ([12]; 62.5 g ai/ha, evaluated after 13 days, read-out: Barnyardgrass damage rating (100=total damage to plant; 0=no damage to plant)) | pest or weed control at 250 g/ha ([12]; 250 g ai/ha, evaluated after 13 days, read-out: damage to plant, Barnyardgrass (100=total damage to plant; 0=no damage to plant))
